Patent US20250188078A1, “SMALL MOLECULE INHIBITORS OF THE CRL4 UBIQUITIN LIGASE” (Cornell University, priority 2022, published 2025)

How the values were obtained:
[1] = target: CUL4A-DDB1-BPB interaction (Homo sapiens (Human), UniProt Q16531); assay: AlphaLISA in vitro binding assay, CUL4A and DDB1-BPB binding; settings: inhibition of CUL4A and DDB1-BPB binding
Text: AlphaLISA IC50 (see Table 1, column 4) means the half maximal inhibitory concentration of compound that inhibits CUL4A and DDB1-BPB binding. Our lab established and optimized 384 well-based AlphaLISA in vitro binding assay for testing small molecule inhibitory activity. Small molecule libraries were screened for compounds that disrupt CUL4A-DDB1-BPB interaction using AlphaScreen detection beads (PerkinElmer, #AL112C and #6765300) following the manufacturer's protocol (https://www.perkinelmer.com/PDFs/downloads/GDE-Alphatech.pdf, hereby incorporated by reference in its entirety for all purposes). The 384-well assay plates (Greiner Bio-one, #781075) were read in Synergy Neo2 Hybrid Multi-Mode Reader (BioTek). The IC50 was calculated by Prism 8 XY analysis nonlinear regression (curve fit-Log(inhibitor) vs response).

[2] = system: CUL4A^high MDA-MB-468 breast cancer cells; assay: Cell killing in CUL4-high MDA-MB-468 cells (CellTiter Glo); assay type: cell-based; settings: Homo sapiens, 192 h; MDA-MB-468 cells, 8 days treatment; read-out: EC50 CUL4-High Cells (cell killing)
Experimental: EC50 refers to concentration of compound that induces 50% killing of CUL4A^high MDA-MB-468 cells (see Table 1, column 6). CUL4A^high MDA-MB-468 breast cancer cells were seeded in 96 well plates. After 24 hours, cells were treated with DMSO or compounds. Change fresh medium and compounds. After 8 days treatment, cell viability was examined by using CellTiter Glo kit (Promega #7570) following the manufacturer's guidelines (https://www.promega.com/-/media/files/resources/protocols/technicalbulletins/0/celltiter-glo-luminescent-cell-viability-assay protocol.pdf?rev=0d95c232094b41daa06d0c110d1d916f&sc_lang=en, hereby incorporated by reference in its entirety for all purposes). EC50 concentration was calculated by Prism 8 XY analysis nonlinear regression (curve fit-Log(inhibitor) vs response). Lower EC50 indicates high cell killing potential in CUL4^high MDA-MB-468 cells.
CUL4A^high MDA-MB-468, CUL4^low (T47D), and MCF7 breast cancer cells were seeded in 96 well plates separately. Cells were treated with DMSO, or from 0 to 20 μM compound respectively. Replace with fresh medium and compounds every 48 hours. After 8 days treatment, cell viability was examined by CellTiter Glo kit (Promega #7570). First, transfer the appropriate volume (10 ml for Cat. #G7570) of CellTiter-Glo® Buffer into the amber bottle containing CellTiter-Glo® Substrate to reconstitute the lyophilized enzyme/substrate mixture. This forms the CellTiter-Glo® Reagent. Second, add CellTiter-Glo® Reagent in an equal volume (100 μl per well for 96-well plates) to all wells. Mix contents for 2 minutes on an orbital shaker to induce cell lysis. Incubate at room temperature for 15 minutes to stabilize luminescent signal. Then record luminescence. EC50 concentration was calculated by Prism 8 XY analysis nonlinear regression (curve fit-Log(inhibitor) vs response).

[3] = system: UV-induced CUL4-dependent DDB2 degradation in MEF-F-DDB2 cells; assay: Cell-based assay for inhibition of UV-induced CUL4-dependent DDB2 degradation; design: key: (+) means that the normalized DDB2/α-tubulin ratio is higher in the compound treated sample than DMSO treated sample; (−) means that no change happens between compound treated sample with control sample; settings: DDB2/α-tubulin by Western blot
Experimental: Cell-based assay for inhibition of UV-induced CUL4-dependent DDB2 degradation by small molecule CUL4 inhibitors (see Table 1, column 5). Briefly, MEF-F-DDB2 cells were seeded in 6-well plates. DMSO or indicated concentrations of compounds were added to MEF-F-DDB2 cells growing in serum-free medium. MEF-F-DDB2 cells were washed once with PBS and subsequently irradiated with a Philips TUV lamp (predominantly 254 nm) at a dose rate of 0.2 W/m^2. DMSO or compounds were added to MEF-F-DDB2 cells, and then cells were harvested. The cells were lysed, and equal amounts of proteins were resolved on SDS-PAGE gel and Flag-DDB2 levels were detected using anti-DDB2 (D4C4) rabbit antibody (Cell signaling, #5416S). α-tubulin (Proteintech, #66031-1-Ig) was used as an internal loading control. (+) means that the normalized DDB2/α-tubulin ratio is higher in the compound treated sample than DMSO treated sample. (−) means that no change happens between compound treated sample with control sample.

Sequence of CUL4A-DDB1-BPB interaction (Q16531 403-706): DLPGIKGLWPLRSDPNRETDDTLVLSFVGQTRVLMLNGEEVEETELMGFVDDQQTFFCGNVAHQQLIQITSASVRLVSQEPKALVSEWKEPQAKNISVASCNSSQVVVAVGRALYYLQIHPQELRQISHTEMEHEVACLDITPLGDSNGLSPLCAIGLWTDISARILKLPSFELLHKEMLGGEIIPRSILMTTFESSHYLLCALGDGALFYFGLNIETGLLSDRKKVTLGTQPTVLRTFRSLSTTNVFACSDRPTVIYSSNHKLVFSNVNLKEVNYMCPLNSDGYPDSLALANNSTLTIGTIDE

SMILES	IC50 [1] [µM]	further results
CN(c1ccc(-c2nc(C(=O)O)cc3c2[nH]c2cc(F)cc(F)c23)cc1)S(=O)(=O)c1ccccc1 [PA1-5, 5,7-difluoro-1-(4-(N-methylphenylsulfonamido)phenyl)-9H-pyrido[3,4-b]indole-3-carboxylic acid]	0.22	EC50 [2]: 10.7 µM
CN(c1ccc(-c2nc(C(=O)O)cc3c2[nH]c2cc(Cl)ccc23)cc1)S(=O)(=O)c1ccccc1 [PA1-6, 1-[4-[benzenesulfonyl(methyl)amino]phenyl]-7-chloro-9H-pyrido[3,4-b]indole-3-carboxylic acid]	1.13	EC50 [2]: 7.89 µM
O=C(O)c1cc2c([nH]c3cc(F)ccc32)c(-c2ccc(Oc3ccccc3)cc2)n1 [PA1-11A, 7-fluoro-1-(4-phenoxyphenyl)-9H-pyrido[3,4-b]indole-3-carboxylic acid]		Degradation Inhibition (inhibition of UV-induced DDB2 degradation) [3]: −; EC50 [2]: 15.7 µM
O=C(O)c1cc2c([nH]c3cc(F)ccc32)c(-c2ccc(OCCc3ccccc3)cc2)n1 [PA1-11B, 7-fluoro-1-(4-phenethoxyphenyl)-9H-pyrido[3,4-b]indole-3-carboxylic acid]		Degradation Inhibition (inhibition of UV-induced DDB2 degradation) [3]: −; EC50 [2]: 15.2 µM
O=C(O)c1cc2c([nH]c3cc(F)ccc32)c(-c2ccc(OCCCc3ccccc3)cc2)n1 [PA1-11C, 7-fluoro-1-(4-(3-phenylpropoxy)phenyl)-9H-pyrido[3,4-b]indole-3-carboxylic acid]		Degradation Inhibition (inhibition of UV-induced DDB2 degradation) [3]: −; EC50 [2]: 7.31 µM
O=C(O)c1cc2c([nH]c3cc(F)ccc32)c(-c2ccc(OCC3CCCCC3)cc2)n1 [PA1-11D, 1-(4-(cyclohexylmethoxy)phenyl)-7-fluoro-9H-pyrido[3,4-b]indole-3-carboxylic acid]		Degradation Inhibition (inhibition of UV-induced DDB2 degradation) [3]: −; EC50 [2]: 9.51 µM
O=C(O)c1cc2c([nH]c3cc(F)ccc32)c(-c2ccc(OCc3ccoc3)cc2)n1 [PA1-11J, 7-fluoro-1-(4-(furan-3-ylmethoxy)phenyl)-9H-pyrido[3,4-b]indole-3-carboxylic acid]		Degradation Inhibition (inhibition of UV-induced DDB2 degradation) [3]: −
O=C(O)c1cc2c([nH]c3cc(F)ccc32)c(-c2ccc(OCc3ccncn3)cc2)n1 [PA1-11L, 7-fluoro-1-(4-(pyrimidin-4-ylmethoxy)phenyl)-9H-pyrido[3,4-b]indole-3-carboxylic acid]		Degradation Inhibition (inhibition of UV-induced DDB2 degradation) [3]: −
O=C(O)c1cc2c([nH]c3cc(F)ccc32)c(-c2ccc(OCn3cncn3)cc2)n1 [PA1-11M, 1-(4-((1H-1,2,4-triazol-1-yl)methoxy)phenyl)-7-fluoro-9H-pyrido[3,4-b]indole-3-carboxylic acid]		Degradation Inhibition (inhibition of UV-induced DDB2 degradation) [3]: −
Cc1cc(F)cc2[nH]c3c(-c4ccc(N(C)S(=O)(=O)c5ccccc5)cc4)nc(C(=O)O)cc3c12 [PA1-14, 7-fluoro-5-methyl-1-(4-(N-methylphenylsulfonamido)phenyl)-9H-pyrido[3,4-b]indole-3-carboxylic acid]	0.139	EC50 [2]: 7.36 µM
O=C(O)c1cc2c([nH]c3ccccc32)c(-c2cccc(Cl)c2)n1 [PA6]	3.97 ± 0.79	
Cn1c2ccccc2c2cc(C(=O)O)nc(-c3ccc([N+](=O)[O-])cc3)c21 [PA14, 9-methyl-1-(4-nitrophenyl)pyrido[3,4-b]indole-3-carboxylic acid]	32.2 ± 7.89	
O=C(O)c1cc2c([nH]c3ccccc32)c(-c2ccc(CO)cc2)n1 [PA21]	3.4 ± 0.88	
O=C(O)c1cc2c([nH]c3ccccc32)c(-c2cccc(O)c2)n1 [PA22]	14.7 ± 3.25	
N#Cc1cccc(-c2nc(C(=O)O)cc3c2[nH]c2ccccc23)c1 [PA23]	2.38 ± 0.9	
COC(=O)c1cccc(-c2nc(C(=O)O)cc3c2[nH]c2ccccc23)c1 [PA24, 1-(3-methoxycarbonylphenyl)-9HPage pyrido[3,4-b]indole-3-carboxylic acid]	12	Degradation Inhibition (inhibition of UV-induced DDB2 degradation) [3]: +
O=C(O)c1cc2c([nH]c3ccccc32)c(-c2cccnc2)n1 [PA25]	2.52 ± 0.54	Degradation Inhibition (inhibition of UV-induced DDB2 degradation) [3]: +
CN1C=C(c2nc(C(=O)O)cc3c2[nH]c2ccccc23)C=NC1 [PA26]	4.81 ± 0.96	
O=C(O)c1cc2c([nH]c3ccccc32)c(-c2ncc[nH]2)n1 [PA27]	23.1 ± 4.02	

SMILES	IC50 [1] [µM]	further results
O=C(O)c1cc2c([nH]c3ccccc32)c(-c2ccc3[nH]ccc3c2)n1 [PA28, 1-(1H-indol-5-yl)-9H-pyrido[3,4-b]indole-3-carboxylic acid]	34.8 ± 8.75	
Cc1c(/C(=N\CC(=O)O)c2ccc3[nH]ncc3c2)[nH]c2ccccc12 [PA29]	3.79 ± 1.02	
O=[N+]([O-])c1ccc(-c2nc(Br)cc3c2[nH]c2ccc(Br)cc23)cc1 [PA30, 3,6-dibromo-1-(4-nitrophenyl)-9H-pyrido[3,4-b]indole]		AlphaLisa IC50 [1]: Neg
O=C(O)c1cc2c([nH]c3ccccc32)c(-c2ccc(F)c(F)c2)n1 [PA32]	3.54 ± 0.68	
O=C(O)c1cc2c([nH]c3ccccc32)c(-c2cccc([N+](=O)[O-])c2)n1 [PA36]	7.1 ± 0.61	
CS(=O)(=O)Nc1cc2c([nH]c3ccccc32)c(-c2ccc([N+](=O)[O-])cc2)n1 [PA38, N-[1-(4-nitrophenyl)-9H-pyrido[3,4-b]indol-3-yl]methanesulfonamide]		AlphaLisa IC50 [1]: Neg
NS(=O)(=O)c1cc2c([nH]c3ccc(Cl)cc32)c(-c2ccc([N+](=O)[O-])cc2)n1 [PA41, 6-chloro-1-(4-nitrophenyl)-9H-pyrido[3,4-b]indole-3-sulfonamide]		AlphaLisa IC50 [1]: Neg
CCS(=O)(=O)c1ccc(-c2nc(C(=O)O)cc3c2[nH]c2ccccc23)cc1 [PA45, 1-(4-ethylsulfonylphenyl)-9Hpyrido[3,4-b]indole-3-carboxylic acid]	0.94 ± 0.24	
NS(=O)(=O)c1ccc(-c2nc(C(=O)O)cc3c2[nH]c2ccccc23)cc1 [PA49, 1-(4-sulfamoylphenyl)-9H-pyrido[3,4-b]indole-3-carboxylic acid]	0.96 ± 0.096	
CN(C)S(=O)(=O)c1ccc(-c2nc(C(=O)O)cc3c2[nH]c2ccccc23)cc1 [PA50, 1-[4-(dimethylsulfamoyl)phenyl]-9H-pyrido[3,4-b]indole-3-carboxylic acid]	0.81 ± 0.21	
O=C(O)c1cc2c([nH]c3ccccc32)c(-c2ccc(-c3ccc(F)cc3)cc2)n1 [PA58]	5.5 ± 1.89	
Cc1ccc(-c2ccc(-c3nc(C(=O)O)cc4c3[nH]c3ccccc34)cc2)cc1 [PA59]	25 ± 12.5	
COc1ccc(-c2ccc(-c3nc(C(=O)O)cc4c3[nH]c3ccccc34)cc2)cc1 [PA60]	17.5 ± 6.39	Degradation Inhibition (inhibition of UV-induced DDB2 degradation) [3]: −
CS(=O)(=O)c1ccc(-c2ccc(-c3nc(C(=O)O)cc4c3[nH]c3ccccc34)cc2)cc1 [PA61]	3.86 ± 0.59	
O=C(O)c1cc2c([nH]c3ccccc32)c(-c2ccc(C#Cc3ccccc3)cc2)n1 [PA62]	36.5 ± 9.9	
COCCOCC#Cc1ccc(-c2nc(C(=O)O)cc3c2[nH]c2ccccc23)cc1 [PA63]	5.05 ± 0.2	
CS(=O)(=O)c1ccc(-c2nc(C(=O)O)nc3c2[nH]c2ccccc23)cc1 [PA70, 4-(4-methylsulfonylphenyl)-5H-pyrimido[5,4-b]indole-2-carboxylic acid]	9.04 ± 0.89	
O=C(O)c1cc2c([nH]c3ccccc32)c(-c2ccc(NS(=O)(=O)c3ccccc3)cc2)n1 [PA77, 1-[4-(benzenesulfonamido)phenyl]-9H-pyrido[3,4-b]indole-3-carboxylic acid]	1.52 ± 0.19	
